Patent US20100143994A1, “PROCESS FOR FERMENTIVE PREPARATION OF ALCOHOLS AND RECOVERY OF PRODUCT” (E. I. DU PONT DE MEMOURS AND COMPANY, priority 2008, published 2010)

What was measured:
[1] = system: Saccharomyces cerevisiae (W1362 20A); assay: Scale-up (25 mL broth) fermentation with ionic liquid, glucose uptake and ethanol production over five hours; format: cell-based; details: 5 volume percent ionic liquid, five hour time span, FIG. 2
Description: Cultures were again prepared using the same growth conditions as described above except that the total broth volume was 25 mL. The selected ionic liquids were added to a container of each broth in an amount of 5 volume percent. In these experiments, small samples were withdrawn from the broth for HPLC analysis periodically over a five hour time span to get a better idea of the extent of metabolic activity after ionic liquid addition as well as to provide information on glucose consumption and product formation. […] The calculation of GUI was made as described above, and amount of ethanol produced was taken directly from the HPLC data.

[2] = Extraction of ethanol from an aqueous solution by ionic liquid; format: physicochemical; details: 3 mL aqueous solution about 31 g/L ethanol, 5 vol % ionic liquid, overnight equilibration
Description: (§1) Ethanol and isobutanol concentration in the solution was measured using HPLC as described above following thorough mixing and overnight equilibration of the contents of the vial.

[3] = Extraction of isobutanol from an aqueous solution by ionic liquid; format: physicochemical; details: 3 mL aqueous solution about 31 g/L isobutanol, 5 vol % ionic liquid, overnight equilibration
Description: as §1

| Compound | ethanol production throughout the fermentation run [1] | glucose uptake (GUI) throughout the fermentation run [1] | Ethanol (mM) in solution after equilibration [2] | Isobutanol (mM) in solution after equilibration [3] |
| --- | --- | --- | --- | --- |
| 1-hexyl-3-methylimidazolium bis(trifluoromethylsulfonyl)imide [Example 9] | remained robust | remained robust | 678 mM | 388 mM |
| 1-butyl-3-methylpyrrolidinium bis(trifluoromethylsulfonyl)imide [Example 15] | remained robust | remained robust | 676 mM | 391 mM |
| 1-ethyl-3-methylimidazolium bis(trifluoromethylsulfonyl)imide [Example 6] | remained robust | remained robust | 670 mM | 389 mM |
| CCCCCCn1cc[n+](C)c1.FC(F)(F)C(F)(F)[P-](F)(F)(F)(C(F)(F)C(F)(F)F)C(F)(F)C(F)(F)F [Example 1, 1-hexyl-3-methylimidazolium tris(pentafluoroethyl)trifluorophosphate] | remained robust | remained robust | 680 mM | 404 mM |
